Results published in patent US20230304064A1, “AUTOMATED, DIGITAL DISPENSING PLATFORM FOR MICRODILUTION ANTIMICROBIAL SUSCEPTIBILITY TESTING” (priority 2016, published 2023).
Like-named read-outs stand apart in the source and are kept apart here.

Legend:
[1] = tested on: carbapenem-resistant Klebsiella pneumoniae clinical isolates (blaKPC); test: DDM (digital dispensing method) MIC testing of CRE isolates; format: cell-based; conditions: for MIC: Klebsiella pneumoniae, read-out: DDM modal MICs
Protocol: (§1) Bacterial strains: The 10 de-identified CRE clinical isolates used in the study were collected at our institution under Institutional Review Board-approved protocols and were sequenced through the carbapenem-resistant Enterobacteriaceae genome initiative at the Broad Institute (Cambridge, MA). All contained a Klebsiella pneumoniae carbapenemase (blaKPC) gene and were colony-purified, minimally passaged, and stored at -80° C. prior to use in this study.
(§2) After incubation, bacterial growth was quantified by measurement of OD600 using an Epoch (BioTek, Winooski, VT) or Spark 10 M microplate reader (Tecan, Morrisville, NC). An OD600 reading of 0.08 or greater (approximately twice typical background readings in wells containing broth alone) was considered indicative of bacterial growth (as also appreciable by visual assessment).
(§3) Precision and accuracy. […] Modal DDM MICs were calculated by taking the mode of all DDM MIC measurements obtained for a given antibiotic-strain combination, inclusive of initial MIC titrations and single-antibiotic rows/columns in synergy arrays (Table 5).

[2] = tested on: carbapenem-resistant Escherichia coli clinical isolates (blaKPC); test: as above; format: cell-based; conditions: for MIC: Escherichia coli, read-out: DDM modal MICs
Protocol: as §1, §2, §3

S. aureus = test: Automated microscopy cell counting at inhibitory and sub-inhibitory antibiotic concentrations; format: cell-based, Staphylococcus aureus; conditions: 4 hours
Protocol: We performed preliminary automated imaging experiments on the Cell Observer microscope (Zeiss, Oberkochen, Germany) (37° C., 640x magnification, DIC). For these experiments, we utilized E. coli ATCC 25922 and S. aureus ATCC 25923 (FIG. 5), prototypical Gram-negative and Gram-positive pathogens. […] Therefore, we conducted automated imaging of the center of 20 wells using 20-50 z-slices of approximately 1 µm thickness. Each image represented approximately 43,500 µm^2. After collapsing z-slices into a single image per well, cells were readily detectable and distributed evenly throughout the field at a density of 10-30 cells per 1000 µm^2 in all wells evaluated.
As proof of concept and preliminary data for image analysis-based direct cell counting, we utilized a machine learning algorithm (Trainable Weka as contained within the Fiji implementation of ImageJ) (Schindelin et al., Nature Methods 9:676-682 (2012)). A training set of 200 manually segmented S. aureus cells was used to establish a model for cell detection. This model accepts raw image data as input (FIG. 7A), classifies each pixel of an image as containing “cells” or “background” resulting in a segmented image (FIG. 7B). The segmented image is then converted to a black and white binary format. A watershed algorithm refines the segmentation by defining borders where two or more cells are in contact with one another and prevents later erroneous single counting of these otherwise fused objects (FIG. 7C). The particle analysis function of ImageJ is then used to identify particles >0.25 µm^2 as individual bacteria (FIG. 7D). Identified bacteria are subsequently counted and their aggregate surface area calculated.
Using our cell counting model, we compared images of S. aureus grown on inhibitory and sub-inhibitory concentrations of antibiotics. […] At the same time point we observed that E. coli cells in wells with sub-inhibitory concentrations of antimicrobial formed large microcolonies, making analysis of individual cells difficult. In cases where individual cells could not be segmented, a machine learning algorithm similar to that outlined in (d) reliably quantifies relative cell coverage in each field.

[3] = tested on: eighty de-identified Enterobacteriaceae clinical isolates; test: organism not typed; format: cell-based; conditions: eighty clinical isolates; reference microdilution; CLSI criteria, EUCAST for colistin
Protocol: K. pneumonia BIDMC12A is a previously described, carbapenem resistant clinical isolate (14) expressing a KPC-3 carbapenemase. The eighty de-identified Enterobacteriaceae clinical isolates (Table 1) used for verification studies were collected at our institution under IRB-approved protocols. All strains were minimally passaged and stored at -80° C. prior to use in this study.
Verification study: Digital dispensing and reference method testing were performed in parallel using the same inoculum preparation. Microdilution reference panels were pre-prepared and stored at -80° C. until use (less than 2 weeks). D300 test method panels were prepared fresh each day of use.
Accuracy was evaluated using established guidelines (16, 17). The MIC determined by the digital dispensing method was compared with the MIC determined by the broth microdilution reference method. Essential agreement, overall essential agreement, and categorical agreement were evaluated as described in the precision study.

E. coli ATCC 25922 = test: Microscopy-based AST (MAST): cell morphology at the MIC; conditions: MAST, 2-hour incubation
Protocol: Briefly, antibiotics are added to solidified microwell surfaces which are subsequently inoculated with 200 nL of a standardized bacterial suspension. Both antibiotic and bacterial cell dispensing are performed using the HP D300 system. Following incubation at 35±2° C., plates are imaged on a Zeiss Cell Observer microscope operating in brightfield mode with a 40X long working distance objective. The microscope is equipped with an automated stage. […] The z-position of the poloxamer surface in the first well is set manually after which the software directs the stage to each subsequent well, collecting a z-series (20 slices at 2 µM per slice with the center of the z-series defined by the microscope’s autofocus feature) with no further operator intervention. Z-series are collapsed using the Extended Depth of Focus feature in the Zeiss Zen Blue software and saved as individual images.
Microscopy-based AST (MAST). […] Two-hundred nL of bacteria in NaCl-P20 suspended at a density of 0.1 McFarland were then delivered to the center of each well by digital dispensing. Immediately after inoculation, plates were incubated at 35±2° C. for 2 hours, and held at room temperature for 2 hours during transport and imaging.
Plates were imaged with a Zeiss Cell Observer microscope with settings described in the “quantification of bacterial dispensing” section. […]

[4] = in vivo; cited from earlier work

Molecule | MIC ([1]; BIDMC 4, KPN, KPC type 3) [µg/mL] | MIC ([1]; BIDMC 5, KPN, KPC type 3) [µg/mL] | MIC ([1]; BIDMC 10, KPN, KPC type 3) [µg/mL] | MIC ([1]; BIDMC 12A, KPN, KPC type 3) [µg/mL] | MIC ([1]; BIDMC 18A, KPN, KPC type 2) [µg/mL] | MIC ([2]; BIDMC 6, ECO, KPC type 2) [µg/mL] | MIC ([2]; BIDMC 9, ECO, KPC type 2) [µg/mL] | MIC ([2]; BIDMC 15, ECO, KPC type 2) [µg/mL] | MIC ([2]; BIDMC 17A, ECO, KPC type 2) [µg/mL] | MIC ([2]; BIDMC 20A, ECO, KPC type 3) [µg/mL] | Non-susceptible strains (%) [3] [%] | Non-susceptible strains n [3] | also measured
CO[C@H]1/C=C/O[C@@]2(C)Oc3c(C)c(O)c4c(O)c(c(/C=N/N5CCN(C)CC5)c(O)c4c3C2=O)NC(=O)/C(C)=C\C=C\[C@H](C)[C@H](O)[C@@H](C)[C@@H](O)[C@@H](C)[C@H](OC(C)=O)[C@@H]1C [RIF, rifampin] | 32 | 32 | 32 | 32 | 16 | 16 | 16 | 32 | 32 | 16 |  |  | 
CC1(C)S[C@@H]2[C@H](NC(=O)[C@H](N)c3ccccc3)C(=O)N2[C@H]1C(=O)O [Ampicillin (AMP), Ampicillin] |  |  |  |  |  |  |  |  |  |  | 81.3 | 65 | area occupied by cells (S. aureus; 0.5 × the MIC): 555 µm^2; cells detected (S. aureus; 0.5 × the MIC): 242 cells; reduction of cell numbers at the MIC vs 0.5 × the MIC (S. aureus): 5 fold; area occupied by cells (S. aureus; at the MIC): 47 µm^2; cells detected (S. aureus; at the MIC): 51 cells
Gentamicin [Gentamicin (GEN)] |  |  |  |  |  |  |  |  |  |  | 31.3 | 25 | DDM modal MICs ([1]; BIDMC 4, KPN, KPC type 3): 32 mg/L; DDM modal MICs ([1]; BIDMC 5, KPN, KPC type 3): 32 mg/L; DDM modal MICs ([1]; BIDMC 10, KPN, KPC type 3): 32 mg/L; DDM modal MICs ([1]; BIDMC 12A, KPN, KPC type 3): 1 mg/L; DDM modal MICs ([1]; BIDMC 18A, KPN, KPC type 2): 64 mg/L; DDM modal MICs ([2]; BIDMC 6, ECO, KPC type 2): >32 mg/L; DDM modal MICs ([2]; BIDMC 9, ECO, KPC type 2): >32 mg/L; DDM modal MICs ([2]; BIDMC 15, ECO, KPC type 2): 64 mg/L; DDM modal MICs ([2]; BIDMC 17A, ECO, KPC type 2): >32 mg/L; DDM modal MICs ([2]; BIDMC 20A, ECO, KPC type 3): 0.5 mg/L; cell morphology at the MIC (E. coli ATCC 25922): blocked cell growth, but did not appreciably alter morphology
C[C@H]1COc2c(N3CCN(C)CC3)c(F)cc3c(=O)c(C(=O)O)cn1c23 [LVX, levofloxacin] | 128 | > 64 | 16 | 32 | 64 | 16 | 16 | 32 | 16 | 32 |  |  | 
O=C(N[C@H](CO)[C@H](O)c1ccc([N+](=O)[O-])cc1)C(Cl)Cl [CHL, chloramphenicol] |  |  | > 64 | 64 |  | 8 | 8 | 8 | 8 | 16 |  |  | 
CN(C)c1ccc(O)c2c1C[C@H]1C[C@H]3[C@H](N(C)C)C(O)=C(C(N)=O)C(=O)[C@@]3(O)C(O)=C1C2=O [MIN, minocycline] | 8 | 16 | 4 | 4 | 2 | 1 | 1 | 1 | 1 | 4 |  |  | serum concentrations [4]: higher serum concentrations than tigecycline; side effects [4]: generally favorable side-effect profile
O=C(O)c1cn(C2CC2)c2cc(N3CCNCC3)c(F)cc2c1=O [Ciprofloxacin (CIP), Ciprofloxacin] |  |  |  |  |  |  |  |  |  |  |  |  | cell morphology at the MIC (E. coli ATCC 25922): elongated cells that failed to divide
CN(C)[C@@H]1C(O)=C(C(N)=O)C(=O)[C@@]2(O)C(O)=C3C(=O)c4c(O)cccc4[C@@](C)(O)[C@H]3C[C@@H]12 [Tetracycline (TET), Tetracycline] |  |  |  |  |  |  |  |  |  |  | 42.5 | 34 | 
CN(C)c1cc(NC(=O)CNC(C)(C)C)c(O)c2c1C[C@H]1C[C@H]3[C@H](N(C)C)C(O)=C(C(N)=O)C(=O)[C@@]3(O)C(O)=C1C2=O [tigecycline] |  |  |  |  |  |  |  |  |  |  |  |  | side effects [4]: significant rates of nausea and vomiting; urinary excretion [4]: limited urinary excretion
C[C@@H]1O[C@@H]1P(=O)(O)O [FOF, fosfomycin] | 128 | 8 | 64 | 8 | 4 | 0.5 | 0.5 | 0.5 | 0.5 | 1 |  |  | 
